Source: EP4617273A1, “FUSED TRICYCLIC PARP1 INHIBITOR, PREPARATION METHOD THEREFOR, AND USE THEREOF” (Haihe Biopharma Co., Ltd., priority 2022, dated 2024)

What was measured:
[1] = target: T1, Recombinant human PARP1 protein (Homo sapiens, UniProt P09874); experiment: biochemical
Procedure: (§1) The PARP1/2 inhibitory activity of the compounds of the present invention was tested in an assay using Histone as a substrate.
(§2) Aim of the assay: to test the PARP1/2 enzymatic activity inhibition IC50 values of the compounds of the present application according to established experimental methods.
(§3) 1. Compound Configuration: Dilute the compounds with DMSO in 384-well plates to a 1000-fold final concentration and set aside.
(§4) 1) Dilute Histone with PBS, add 25uL of Histone mixture to each well and incubate for 2 h. 2) Wash each well 5 times using PBST solution. Remove the solution with a clean paper towel.3) Add 75 uL of Blocking buffer to each well and incubate for 1 h at rt. 4) Wash each well 5 times using PBST solution. Remove the solution with a clean paper towel.
(§5) 2) Use 1× Assay buffer to prepare 2.5× final concentration of PARP1 solution. 3) Add 10 uL of enzyme solution to the compound wells and Max control wells; add 10 uL of 1× Assay buffer. […] 6) Centrifuge at 1000 rpm for 60 seconds and incubate at rt for 2 h. 7) Each well was washed 5 times with PBST solution. Remove the solution with a clean paper towel.
(§6) 1) Prepare Streptavidin-HRP solution, add 25 µL to each well, centrifuge at 1000 rpm for 60 sec, and incubate at rt for 30 min. 2) Wash each well 5 times using PBST solution. Remove the solution with a clean paper towel. 3) Add 50 µL of ELISA Chemiluminescent Substrate per well. 4) Centrifuge at 1000 rpm for 60 seconds and read with EnSight after 5 min.
(§7) The inhibition rate was calculated using the following formula: % inhibition = (max signal - compound signal) / (max signal - min signal) × 100, where 'min signal' is the mean value of negative control wells and 'max signal' is the mean value of positive control wells.
(§8) Fitting the quantitative effect curve: using the log value of the concentration as the X-axis and the percentage inhibition as the Y-axis; using the log(inhibitor) vs. response-variable slope method in software GraphPadPrism5 to fit the quantitative effect curve to calculate the IC50 value for the inhibition of the enzyme activity by the compounds of the present invention. The fitting formula is: Y=Bottom+ (Top-Bottom)/(1+10^((logIC50-X)*HillSlope)).

MDA-MB-436 cells = experiment: MDA-MB-436 cell proliferation inhibition test (CellTiter-Glo, 7 days); type: cell-based; conditions: Homo sapiens, MDA-MB-436, 168 h, 7 days incubation
Procedure: Human breast cancer MDA-MB-436 (purchased from ATCC) cells were cultured in DMEM medium (supplemented with 10% fetal bovine serum with 1% dual antibody) at 37 °C, 5% CO2. The cells were taken from the logarithmic growth phase, digested and prepare cell suspension witha certain concentration, which was inoculated into 96-well plates. 100 µL of cell suspension was added to each well of the 96-well plates, incubated overnight, then different concentrations of compounds were added, and the cells were incubated in the cell culture incubator for 7 days. At the end of incubation, 50 µL of CellTiter-Glo reagent was added to each well, mixed with a microplate and shaked for 2 min, and left at rt for 60 min, then the fluorescence value was read with a Spark® multimode microplate reader. […] Table 2. proliferation inhibitory activity of compounds of the present invention on MDA-MB-436 cells

[2] = target: T2, recombinant human PARP2 protein (Homo sapiens, UniProt Q9UGN5); experiment: PARP2 enzymatic inhibitory activity, histone substrate, chemiluminescent ELISA; type: biochemical; conditions: histone substrate, 500 µM NAD+ not added; read-out: PARP2 IC50
T2 construct: purchased BPS 80502
Procedure: The PARP2 inhibitory activity assay was performed as in Experimental Method 1, except that PARP1 solution in step 2 of "3. Ribosylation reaction" was replaced with recombinant human PARP2 solution, and 500 µM NAD+ was not added in step 5 of the ribosylation reaction. Table 1. IC50 for inhibition of PARP1/2 enzymes by compounds of the present invention

[3] = target: T1, Recombinant human PARP1 protein; experiment: PARP1 enzymatic inhibitory activity, histone substrate, chemiluminescent ELISA; conditions: PARP2 IC50 over PARP1 IC50
Procedure: as §1, §2, §3, §4, §5, §6, §7, §8

T1 sequence (P09874 whole entry): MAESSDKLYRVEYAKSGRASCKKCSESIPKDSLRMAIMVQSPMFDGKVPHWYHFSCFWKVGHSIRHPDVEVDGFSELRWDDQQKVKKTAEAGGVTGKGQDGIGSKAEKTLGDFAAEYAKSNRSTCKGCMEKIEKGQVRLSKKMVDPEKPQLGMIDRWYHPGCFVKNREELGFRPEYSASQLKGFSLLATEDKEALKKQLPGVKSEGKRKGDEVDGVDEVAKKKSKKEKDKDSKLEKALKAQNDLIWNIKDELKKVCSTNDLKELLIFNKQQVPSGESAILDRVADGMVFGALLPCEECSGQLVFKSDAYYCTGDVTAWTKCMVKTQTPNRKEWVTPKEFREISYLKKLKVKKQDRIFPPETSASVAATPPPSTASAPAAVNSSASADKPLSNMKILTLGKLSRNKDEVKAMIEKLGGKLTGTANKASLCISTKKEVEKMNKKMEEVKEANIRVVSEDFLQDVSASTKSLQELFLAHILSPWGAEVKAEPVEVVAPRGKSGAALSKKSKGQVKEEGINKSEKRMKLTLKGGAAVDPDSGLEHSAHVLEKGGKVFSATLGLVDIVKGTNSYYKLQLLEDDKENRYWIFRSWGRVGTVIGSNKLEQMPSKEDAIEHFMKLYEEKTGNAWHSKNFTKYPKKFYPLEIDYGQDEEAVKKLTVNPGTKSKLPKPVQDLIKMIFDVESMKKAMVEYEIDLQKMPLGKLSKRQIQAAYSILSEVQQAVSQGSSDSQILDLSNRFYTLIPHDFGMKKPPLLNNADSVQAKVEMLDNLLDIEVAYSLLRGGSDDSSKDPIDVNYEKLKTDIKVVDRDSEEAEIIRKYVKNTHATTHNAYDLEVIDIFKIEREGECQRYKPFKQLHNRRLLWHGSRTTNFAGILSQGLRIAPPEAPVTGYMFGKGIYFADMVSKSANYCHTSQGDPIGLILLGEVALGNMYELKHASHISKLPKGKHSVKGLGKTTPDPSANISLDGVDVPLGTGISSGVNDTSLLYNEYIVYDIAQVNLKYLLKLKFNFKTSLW
T2 sequence (Q9UGN5 whole entry): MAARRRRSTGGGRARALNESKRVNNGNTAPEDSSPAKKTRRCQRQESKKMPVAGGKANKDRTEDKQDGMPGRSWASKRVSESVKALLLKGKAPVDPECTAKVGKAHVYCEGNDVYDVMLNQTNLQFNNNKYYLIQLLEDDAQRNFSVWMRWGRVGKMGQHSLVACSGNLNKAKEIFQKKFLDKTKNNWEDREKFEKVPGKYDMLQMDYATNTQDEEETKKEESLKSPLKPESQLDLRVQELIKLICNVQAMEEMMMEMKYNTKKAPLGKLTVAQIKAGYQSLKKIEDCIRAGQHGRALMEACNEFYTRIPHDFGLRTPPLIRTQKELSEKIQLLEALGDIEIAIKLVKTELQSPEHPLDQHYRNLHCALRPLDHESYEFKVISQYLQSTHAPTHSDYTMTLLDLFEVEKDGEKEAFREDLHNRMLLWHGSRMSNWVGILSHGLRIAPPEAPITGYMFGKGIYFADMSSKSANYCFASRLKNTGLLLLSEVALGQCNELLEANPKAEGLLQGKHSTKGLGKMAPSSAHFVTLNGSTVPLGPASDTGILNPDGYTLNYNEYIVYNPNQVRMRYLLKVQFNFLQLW

IC50 [1] [nM] | IC50 (MDA-MB-436 cells) [nM] | IC50 [2] [nM] | PARP1/2 Fold selectivity [3] | Compound
11.3 |  | 8870 | 785 | CNC(=O)c1ccc(N2CCN(Cc3ccc4c(c3F)NC(=O)N3CC(C)(C)N=C43)CC2)c(F)n1 [Compound 136]
1.5 | 12.8 |  |  | CNC(=O)c1ccc(N2CCN(Cc3ccc4c(c3F)NC(=O)N3CCCN=C43)CC2)c(C)n1 [Compound 140]
0.8 | 27.4 |  |  | CNC(=O)c1ccc(N2CCN(Cc3ccc4c(c3F)NC(=O)N3CCN=C43)CC2)c(F)n1 [Compound 123]
 | 3.6 |  |  | CNC(=O)c1ccc(N2CCN(Cc3ccc4c(c3F)NC(=O)N3CC(F)(F)CN=C43)CC2)c(F)n1 [Compound 148]
0.3 |  |  |  | CNC(=O)c1ccc(N2CCN(Cc3ccc4c(c3F)NC(=O)N3C[C@@H](C)N=C43)[C@H](C)C2)c(Cl)n1 [Compound 197]
1.6 |  |  |  | O=C(NC1CC1)c1ccc(N2CCN(Cc3ccc4c(c3F)NC(=O)N3CCCN=C43)CC2)c(Cl)n1 [Compound 202]
0.36 | 9.2 |  |  | CCNC(=O)c1ccc(N2CCN(Cc3ccc4c(c3F)NC(=O)N3CCCN=C43)CC2)c(Cl)n1 [Compound 183]
4.6 |  |  |  | CNC(=O)c1ccc(N2CCN(Cc3ccc4c(c3F)NC(=O)N3CC[C@@H](C)N=C43)CC2)c(F)n1 [Compound 143]
1.3 | 8.1 |  |  | CNC(=O)c1ccc(N2CCN(Cc3ccc4c(c3F)NC(=O)N3C[C@@H](C)N=C43)CC2)c(C)n1 [Compound 153]
 | 12.4 |  |  | CNC(=O)c1ccc(N2CCN(Cc3ccc4c(c3F)NC(=O)N3C[C@H](F)CN=C43)CC2)c(Cl)n1 [Compound 146]
0.7 | 5.7 |  |  | CCNC(=O)c1ccc(N2CCN(Cc3ccc4c(c3F)NC(=O)N3C[C@@H](C)N=C43)CC2)c(F)n1 [Compound 172]
1.2 | 28.7 |  |  | CNC(=O)c1ccc(N2CCN(Cc3ccc4c(c3F)NC(=O)N3C[C@H](C)N=C43)CC2)c(F)n1 [Compound 133]
0.34 |  |  |  | CNC(=O)c1ccc(N2CCN(Cc3ccc4c(c3)NC(=O)N3C[C@@H](C)N=C43)CC2)c(C)n1 [Compound 190]
0.5 |  |  |  | C[C@@H]1CN2C(=O)Nc3c(ccc(CN4CCN(c5ccc(C(=O)NCC(F)F)nc5Cl)CC4)c3F)C2=N1 [Compound 198]
2.2 |  |  |  | CNC(=O)c1ccc(C2CCN(Cc3ccc4c(c3F)NC(=O)N3C[C@@H](C)N=C43)CC2)c(Cl)n1 [Compound 194]
1.5 |  |  |  | CNC(=O)c1ccc(N2CCN(Cc3ccc4c(c3F)NC(=O)N3CCCN=C43)CC2)c(C(F)F)n1 [Compound 204]
0.6 |  |  |  | CNC(=O)c1ccc(O[C@H]2CN(Cc3ccc4c(c3F)NC(=O)N3C[C@@H](C)N=C43)[C@@H]2C)cn1 [Compound 199]
1.7 |  |  |  | CNC(=O)c1ccc(N2CCN(Cc3ccc4c(c3F)NC(=O)N3C[C@@H](C)N=C43)CC2)cn1 [Compound 193]
1.1 | 17.5 |  |  | CNC(=O)c1ccc(N2CCN(Cc3ccc4c(c3F)NC(=O)N3C[C@H](C)N=C43)CC2)c(C)n1 [Compound 151]
0.6 | 8.9 |  |  | CNC(=O)c1ccc(N2CCN(Cc3ccc4c(c3F)NC(=O)N3C[C@H](F)CN=C43)CC2)c(C)n1 [Compound 145]
1.5 | 21.5 |  |  | CNC(=O)c1ccc(N2CCN(Cc3ccc4c(c3F)NC(=O)N3C[C@H](C)N=C43)CC2)c(Cl)n1 [Compound 152]
7.3 |  |  |  | CNC(=O)c1ccc(N2CCN(Cc3ccc4c(c3C)NC(=O)N3CCN=C43)CC2)c(F)n1 [Compound 127]
0.67 |  |  |  | CNC(=O)c1ccc(N2CCN(Cc3ccc4c(c3)NC(=O)N3C[C@@H](C)N=C43)CC2)c(Cl)n1 [Compound 189]
1.3 | 5.4 |  |  | CNC(=O)c1ccc(N2CCN(Cc3ccc4c(c3F)NC(=O)N3CCN=C43)CC2)c(Cl)n1 [Compound 126]
0.95 |  |  |  | C[C@@H]1CN2C(=O)Nc3c(ccc(CN4CCN(c5ccc(C#N)cn5)CC4)c3F)C2=N1 [Compound 187]
 | < 1.52 |  |  | CNC(=O)c1ccc(N2CCN(Cc3ccc4c(c3F)NC(=O)N3CCN=C43)CC2)c(C)n1 [Compound 129]
1.4 |  |  |  | CNC(=O)c1ccc(N2CCN(Cc3ccc4c(c3F)NC(=O)N3C[C@@H](C)N=C43)CC2)c(C(F)F)n1 [Compound 203]

The next lines start with the molecule.

Compound | IC50 [1] [nM] | IC50 (MDA-MB-436 cells) [nM] | IC50 [2] [nM] | PARP1/2 Fold selectivity [3]
CCNC(=O)c1ccc(N2CCN(Cc3ccc4c(c3F)NC(=O)N3CC(F)(F)CN=C43)CC2)c(F)n1 [Compound 186] | 0.58 | 6.4 |  | 
CNC(=O)c1ccc(N2CCN(Cc3ccc4c([nH]c(=O)c5cnnn54)c3F)CC2)c(F)n1 [Compound 26] | 17.7 |  |  | 
CNC(=O)c1ccc(N2CCN(Cc3ccc4c(c3)[nH]c(=O)c3cnn(C)c34)CC2)c(F)n1 [Compound 16] | 0.22 |  |  | 
CNC(=O)c1ccc(N2CCN(C(C)c3ccc4c(c3)[nH]c(=O)c3cccn34)CC2)cn1 (centres unmarked) [Compound 6] | 0.42 |  | 21.7 | 51.7
CNC(=O)c1ccc(N2CCN(Cc3ccc4c(c3)NC(=O)N3CCCN=C43)CC2)c(Cl)n1 [Compound 191] | 0.9 |  | 296 | 323
CNC(=O)c1ccc(N2CCN(C(C)c3ccc4c(c3)[nH]c(=O)c3cccn34)CC2)c(F)n1 (centres unmarked) [Compound 5] | 0.15 |  | 17.3 | 115.3
CNC(=O)c1ccc(N2CCN(Cc3ccc4c([nH]c(=O)c5cscc54)c3F)CC2)c(F)n1 [Compound 80] | 0.85 |  |  | 
CCNC(=O)c1ccc(N2CCN(Cc3ccc4c(c3F)NC(=O)N3CCCN=C43)CC2)c(C)n1 [Compound 184] | 1.13 |  |  | 
CNC(=O)c1ccc(N2CCN(C(C)c3ccc4c([nH]c(=O)c5cn(C)nc54)c3F)CC2)c(F)n1 (centres unmarked) [Compound 19] | 273 |  |  | 
CNC(=O)c1ccc(N2CCN(Cc3ccc4c(c3)NC(=O)N3CCCN=C43)CC2)c(C)n1 [Compound 192] | 1 |  |  | 
CC(c1ccc2c([nH]c(=O)c3ccnn32)c1F)N1CCN(c2ccc(F)cc2F)CC1 (centres unmarked) [Compound 99] | 571 |  |  | 
CNC(=O)c1ccc(N2CCN(Cc3cc4c(cc3Cl)C3=NCCN3C(=O)N4)CC2)c(F)n1 [Compound 135] | 9.6 |  |  | 
CNC(=O)c1ccc(N2CCN(Cc3ccc4c([nH]c(=O)c5sccc54)c3F)CC2)c(F)n1 [Compound 77] | 0.6 |  |  | 
CC(c1ccc2c([nH]c(=O)c3ccnn32)c1F)N1CCN(c2ccc(C#N)cn2)CC1 (centres unmarked) [Compound 98] | 18.4 |  |  | 
CNC(=O)c1ccc(N2CCN(Cc3ccc4c(c3)[nH]c(=O)c3cn(C)nc34)CC2)c(F)n1 [Compound 101] | 1.7 | 9.3 |  | 
Cc1nc(C(=O)NC2CC2)ccc1N1CCN(Cc2ccc3c(c2F)NC(=O)N2CCN=C32)CC1 [Compound 130] | 3.4 |  |  | 
O=C(N[C@@H]1CCOC1)c1ccc(N2CCN(Cc3ccc4c([nH]c(=O)c5ccnn54)c3F)CC2)c(F)n1 [Compound 112] | 14.2 |  |  | 
CNC(=O)c1ccc(N2CCN(Cc3ccc4c(c3)[nH]c(=O)n3cc(C)nc43)CC2)c(F)n1 [Compound 117] | 0.5 |  |  | 
O=C1Nc2c(ccc(CN3CCN(c4ccc(F)cc4F)CC3)c2F)C2=NCCCN12 [Compound 195] | 40.8 |  |  | 
CCNC(=O)c1ccc(N2CCN(Cc3ccc4c(c3F)NC(=O)N3CCN=C43)CC2)c(F)n1 [Compound 128] | 2.2 |  |  | 
CCNC(=O)c1ccc(N2CCN(Cc3ccc4c(c3F)NC(=O)N3CCCN=C43)CC2)c(F)n1 [Compound 171] | 0.7 |  |  | 
